According to patent US20140227303A1, “METHODS FOR DIAGNOSING AND MONITORING DISEASES OR CONDITIONS USING DISEASE MODIFIED BIOMOLECULES AND MEASUREMENT OF A FUNCTIONAL IMMUNE RESPONSE” (VIRACOR-IBT LABORATORIES, priority 2011, published 2014):
“Also recorded” adds a separate entry of the source. Read-outs that look alike come from different tables or passages of the source. Square brackets hold non-standard residues; d marks the D form. Ends that are not written are not given here. Peptide text beside a SMILES is read from it. Cit = NC(=O)NCCC[C@H](N)C(=O)O

What was measured:
PBMCs from RA patients = assay: Cellular stimulation assay: PBMCs incubated with individual peptides DMB 1001-DMB 1010, cytokines in supernatant by AlphaLisa; assay type: cell-based, human; conditions: peptide 10 μg/ml, 20 hrs incubation
Method: Experiment 1: Cytokine Production after Stimulation of PBMCs from RA Patients with Individual Peptides DMB 1001-DMB 1010
Experimental setting: Peripheral blood mononuclear cells (PBMCs) were prepared from freshly collected blood using a Ficoll gradient method. The cellular stimulation assay was performed by incubation of PBMCs with the individual peptides DMB 1001-DMB 1010 at a concentration of 10 μg/ml. Approximately 300,000 to 500,000 PBMC cells were used for each stimulation assay in a cell culture AIM V serum free medium (Life Technologies) within a 96 well round bottom plate. TNFα, IL6 and IL1b concentrations in culture supernatants were determined using the AlphaLisa® method after 20 hrs of incubation.

PBMCs = assay: Cellular stimulation assay: PBMCs incubated with individual peptides DMB 1011 to DMB 1016, TNFα and IL6 by AlphaLisa; assay type: cell-based, human; conditions: for Stimulation response of peptides with same sequence but only one or two citrullines (in words): compared with fully citrullinated peptide; for Stimulation of cells to produce TNF and IL-6 (in words): fibrinogen based peptides with 3 citrulline residues
Method: Experiment 2. Cytokine Production after PBMC Stimulation Using Individual Peptides from DMB 1011 to DMB 1016
Experimental setting: Peripheral blood mononuclear cells (PBMCs) were prepared from freshly collected blood using a Ficoll gradient method. The cellular stimulation assay was performed by incubating PBMCs with individual peptides DMB 1011 to DMB 1016. Approximately 300,000 to 500,000 PBMC cells were used for each stimulation assay in a cell culture AIM V serum free medium (Life Technologies) within a 96 well round bottom plate. Concentrations of TNFα and IL6 in culture supernatants were determined after 20 hrs incubation using the AlphaLisa® method.

[1] = Peptide solubility in water; assay type: physicochemical

Row | Compound | TNFα concentration in culture supernatant (PBMCs from RA patients; PBMC Sample 1) [pg/mL] | TNFα concentration in culture supernatant (PBMCs from RA patients; PBMC Sample 2) [pg/mL] | also measured
1 | KIHAREIFDSRGNPTVE [DMB 1010, Alpha enolase peptide, not citrullinated] | 2.3 | 3.6 | –
2 | GPRVVERHQSACKDS [DMB 1008, Fibrinogen alpha chain peptide, not citrullinated] | 7.1 | 7.5 | –
3 | VYATRSSAVRLRSSVP [DMB 1002, Vimentin-derived peptide, not citrullinated] | 7.7 | 2.7 | IL1b concentration in cell culture (PBMCs from RA patients; PBMC Sample 1): 1; IL6 concentration in cell culture (PBMCs from RA patients; PBMC Sample 1): 0; IL1b concentration in cell culture (PBMCs from RA patients; PBMC Sample 2): 0; IL6 concentration in cell culture (PBMCs from RA patients; PBMC Sample 2): 0
4 | GGVYATRSSAV[Cit]L[Cit]SSVP [DMB 1013] | – | – | Stimulation response of peptides with same sequence but only one or two citrullines (in words) (PBMCs): greatly diminished
5 | GGVYAT[Cit]SSAVRL[Cit]SSVP [DMB 1012] | – | – | Stimulation response of peptides with same sequence but only one or two citrullines (in words) (PBMCs): greatly diminished
6 | CC(C)C[C@H](NC(=O)[C@H](CCCNC(N)=O)NC(=O)[C@@H](NC(=O)[C@H](C)NC(=O)[C@H](CO)NC(=O)[C@H](CO)NC(=O)[C@H](CCCNC(N)=O)NC(=O)[C@@H](NC(=O)[C@H](C)NC(=O)[C@H](Cc1ccc(O)cc1)NC(=O)[C@@H](NC(=O)CNC(=O)CN)C(C)C)[C@@H](C)O)C(C)C)C(=O)N[C@@H](CCCNC(N)=O)C(=O)N[C@@H](CO)C(=O)N[C@@H](CO)C(=O)N[C@H](C(=O)N1CCC[C@H]1C(=O)O)C(C)C [DMB 1011, GGVYAT[Cit]SSAV[Cit]L[Cit]SSVP] | – | – | Water solubility (in words) [1]: improved the peptide solubility in water; also recorded: water soluble; Water solubility (in words) ([1]; listed as SEQ ID NO: 11): increases the water solubility
7 | NEEGFFSA[Cit]GHRPLDKK [DMB 1003] | 4.1 | 2.2 | –
8 | HQCHQEST[Cit]GRSRGRCGRSGS (cysteine pairing not given here) [DMB 1005] | 2.1 | 3.6 | –
9 | GP[Cit]VVE[Cit]HQSACKDS [DMB 1007] | 4.3 | 4.6 | –
10 | CC(C)C[C@H](NC(=O)[C@H](CCCNC(N)=O)NC(=O)[C@@H](NC(=O)[C@H](C)NC(=O)[C@H](CO)NC(=O)[C@H](CO)NC(=O)[C@H](CCCNC(N)=O)NC(=O)[C@@H](NC(=O)[C@H](C)NC(=O)[C@H](Cc1ccc(O)cc1)NC(=O)[C@@H](N)C(C)C)[C@@H](C)O)C(C)C)C(=O)N[C@@H](CCCNC(N)=O)C(=O)N[C@@H](CO)C(=O)N[C@@H](CO)C(=O)N[C@H](C(=O)N1CCC[C@H]1C(=O)O)C(C)C [DMB 1001, VYAT[Cit]SSAV[Cit]L[Cit]SSVP] (H-VYAT[Cit]SSAV[Cit]L[Cit]SSVP-OH; N-terminus and C-terminus assumed) | – | – | Water solubility (in words) [1]: not water soluble
11 | KIHA[Cit]EIFDS[Cit]GNPTVE [DMB 1009] | 5.0 | 6.4 | –
12 | GGV[Cit]GP[Cit]VVE[CIT]HQSACKD (GGV[Cit]GP[Cit]VVE[Cit]HQSACKD) [DMB 1015] | – | – | Stimulation of cells to produce TNF and IL-6 (in words) (PBMCs): failed to stimulate cells
13 | GGVYATRSSAV[Cit]LRSSVP [DMB 1014] | – | – | Stimulation response of peptides with same sequence but only one or two citrullines (in words) (PBMCs): greatly diminished; Stimulation of cells to produce TNF and IL-6 (in words) (PBMCs): failed to stimulate cells
14 | HQCHQESTRGRSRGRCGRSGS [DMB 1006, Filaggrin peptide, not citrullinated] | 2.7 | 7.6 | –
15 | NEEGFFSARGHRPLDKK [DMB 1004, Fibrinogen beta chain peptide, not citrullinated] | 2.5 | 6.7 | –
16 | lipopolysaccharide [LPS, reference compound] | 1708.9 | 508.9 | –
